The results in this text go back to patent publication US12351570B2 (MERCK PATENT GMBH, priority 2018, dated 2025).

For the assay, the system named is MDA-MB-231 cells. As to the kind of experiment: Extracellular lactate production inhibition after 4 h, MDA-MB-231. The conditions noted are these: Homo sapiens, MDA-MB-231.
Experimental: Extracellular Lactate Production Inhibition after 4 h
Cells were plated in growth media supplemented with 10% FBS, followed by overnight recovery at 37° C., 5% CO2. […] Plates were then moved for 4 h incubation at 37° C., 5% CO2 with subsequent 20 μl media transfer to empty 384-well transparent plates. […] Plates were short-spun and measured kinetically in absorbance mode (530 nm, 12 min measurement time with 2-minute intervals between subsequent readouts at 30° C.). Differences in the signal between T8 min and T0min were normalized to vehicle (cells w/ 0.25% DMSO) and quasi-positive (LCIS buffer w/ 0.25% DMSO) controls and plotted against logarithmically-transformed test compound concentrations with fitting the 4-parameter model in GraphPad Prism software.
For the molecule `O=C(O)c1ccc(C#Cc2ccccc2NS(=O)(=O)c2ccc(Br)c3ccccc23)cn1` [Compound 128, 5-{2-[2-(4-bromonaphthalene-1-sulfonamido)phenyl]ethynyl}pyridine-2-carboxylic acid], the IC50 was 100 to 1000 nM.
In the case of `COC(=O)c1ccc(C#Cc2ccccc2NS(=O)(=O)c2ccc(OC)c3cccnc23)cn1` [Compound 129, methyl 5-{2-[2-(5-methoxyquinoline-8-sulfonamido)phenyl]ethynyl}pyridine-2-carboxylate], the IC50 lay in the range of 10 to 100 nM.
To `COc1ccc(S(=O)(=O)Nc2ccccc2C#Cc2ccc(C(=O)O)nc2C)c2ncccc12` [Compound 130, 5-{2-[2-(5-methoxyquinoline-8-sulfonamido)phenyl]ethynyl}-6-methylpyridine-2-carboxylic acid] belongs 1000 to 100000 nM; to `COC(=O)c1ccc(C#Cc2ccccc2NS(=O)(=O)c2cccc(-c3cccnc3)c2)cn1` [Compound 131, methyl 5-(2-{2-[3-(pyridin-3-yl)benzenesulfonamido]phenyl}-ethynyl)pyridine-2-carboxylate], 100 to 1000 nM.
To `COC(=O)c1ccc(C#Cc2ccccc2NS(=O)(=O)c2ccc3c(c2)Cc2ccccc2-3)cn1` [Compound 132, methyl 5-{2-[2-(9H-fluorene-2-sulfonamido)phenyl]ethynyl}pyridine-2-carboxylate] belongs 10 to 100 nM.
`COC(=O)c1ccc(C#Cc2ccccc2NS(=O)(=O)c2ccc(-n3cccn3)cc2)cn1` [Compound 133, methyl 5-(2-{2-[4-(1H-pyrazol-1-yl)benzenesulfonamido]phenyl}-ethynyl)pyridine-2-carboxylate]: the IC50 was in the range of 100 to 1000 nM.
To `COC(=O)c1ccc(C#Cc2cc(F)ccc2NS(=O)(=O)c2c(C)ccc3cccnc23)cn1` [Compound 134, methyl 5-{2-[5-fluoro-2-(7-methylquinoline-8-sulfonamido)phenyl]ethynyl}pyridine-2-carboxylate] belongs 10 to 100 nM; to `COC(=O)c1ccc(C#Cc2ccccc2NS(=O)(=O)c2ccccc2-c2ccccc2)cn1` [Compound 135, methyl 5-[2-(2-{[1,1′-biphenyl]-2-sulfonamido}phenyl)ethynyl]pyridine-2-carboxylate], 100 to 1000 nM; to `COC(=O)c1ccc(C#Cc2ccccc2NS(=O)(=O)c2cnn(-c3ccccc3)c2)cn1` [Compound 136, methyl 5-{2-[2-(1-phenyl-1H-pyrazole-4-sulfonamido)phenyl]ethynyl}pyridine-2-carboxylate], 1000 to 100000 nM.
For the molecule `COC(=O)c1cc(C)c(C#Cc2ccccc2NS(=O)(=O)c2c(C)ccc3cccnc23)cn1` [Compound 137, methyl 4-methyl-5-{2-[2-(7-methylquinoline-8-sulfonamido)phenyl]ethynyl}pyridine-2-carboxylate], the IC50 is 100 to 1000 nM.
The same measure for `Cc1cc(C(=O)O)ncc1C#Cc1cc(F)ccc1NS(=O)(=O)c1ccc(-c2ccccc2)cc1` [Compound 138, 5-[2-(2-{[1,1′-biphenyl]-4-sulfonamido}-5-fluorophenyl)ethynyl]-4-methylpyridine-2-carboxylic acid]: 100 to 1000 nM; for `COC(=O)c1cc(C)c(C#Cc2cc(F)ccc2NS(=O)(=O)c2ccc(-c3ccccc3)cc2)cn1` [Compound 139, methyl 5-[2-(2-{[1,1′-biphenyl]-4-sulfonamido}-5-fluorophenyl)ethynyl]-4-methylpyridine-2-carboxylate]: 100 to 1000 nM; for `COC(=O)c1ccc(C#Cc2ccccc2N(Cc2ccc3ccccc3c2)C(N)=O)cn1` [Compound 140, methyl 5-[2-(2-{carbamoyl[(naphthalen-2-yl)methyl]amino}phenyl)ethynyl]pyridine-2-carboxylate]: 100 to 1000 nM.
To `O=C(O)c1ccc(C#Cc2ccccc2NS(=O)(=O)c2ccccc2-c2ccccc2)cn1` [Compound 141, 5-[2-(2-{[1,1′-biphenyl]-2-sulfonamido}phenyl)ethynyl]pyridine-2-carboxylic acid] belongs 100 to 1000 nM.
In turn, `O=C(O)c1ccc(C#Cc2ccccc2NS(=O)(=O)c2ccc(-n3cccn3)cc2)cn1` [Compound 142, 5-(2-{2-[4-(1H-pyrazol-1-yl)benzenesulfonamido]phenyl}-ethynyl)pyridine-2-carboxylic acid] returned an IC50 of 100 to 1000 nM.
The same measure for `COC(=O)c1ccc(C#Cc2ccccc2NS(=O)(=O)c2c(C)ccc3cccnc23)cn1` [Compound 143, methyl 5-{2-[2-(7-methylquinoline-8-sulfonamido)phenyl]ethynyl}pyridine-2-carboxylate]: 10 to 100 nM; for `O=C(O)c1ccc(C#Cc2ccccc2NS(=O)(=O)N2CCCC3CCCCC32)cn1` (centres unmarked) [Compound 144, 5-(2-{2-[(decahydroquinoline-1-sulfonyl)amino]phenyl}ethynyl)pyridine-2-carboxylic acid]: 10 to 100 nM.
The molecule `O=C(O)c1ccc(C#Cc2ccccc2NS(=O)(=O)N2CCc3cccnc32)cn1` [Compound 145, 5-{2-[2-({1H,2H,3H-pyrrolo[2,3-b]pyridine-1-sulfonyl}amino)phenyl]-ethynyl}pyridine-2-carboxylic acid] registered an IC50 of 1000 to 100000 nM.
To `COC(=O)c1cc(C)c(C#Cc2cc(F)ccc2NS(=O)(=O)c2c(C)ccc3cccnc23)cn1` [Compound 146, methyl 5-{2-[5-fluoro-2-(7-methylquinoline-8-sulfonamido)phenyl]ethynyl}-4-methylpyridine-2-carboxylate] belongs 10 to 100 nM; to `NC(=O)N(Cc1ccc2ccccc2c1)c1ccccc1C#Cc1ccc(C(=O)O)nc1` [Compound 147, 5-[2-(2-{carbamoyl[(naphthalen-2-yl)methyl]amino}phenyl)ethynyl]pyridine-2-carboxylic acid], 100 to 1000 nM; to `Cc1cc(C(=O)O)ncc1C#Cc1cc(F)ccc1NS(=O)(=O)c1c(C)ccc2cccnc12` [Compound 148, 5-{2-[5-fluoro-2-(7-methylquinoline-8-sulfonamido)phenyl]ethynyl}-4-methylpyridine-2-carboxylic acid], 10 to 100 nM.
`Cc1ccc2cccnc2c1S(=O)(=O)Nc1ccccc1C#Cc1cnc(C(=O)O)cc1Cl` [Compound 149, 4-chloro-5-{2-[2-(7-methylquinoline-8-sulfonamido)phenyl]ethynyl}pyridine-2-carboxylic acid] yielded an IC50 of 10 to 100 nM.
To `Cn1c2ccccc2c2ccc(S(=O)(=O)Nc3ccccc3C#Cc3ccc(C(=O)O)nc3)cc21` [Compound 150, 5-{2-[2-(9-methyl-9H-carbazole-2-sulfonamido)phenyl]ethynyl}pyridine-2-carboxylic acid] belongs 100 to 1000 nM; to `O=C(O)c1ccc(C#Cc2ccccc2NC(=O)N2CCCc3cccnc32)cn1` [Compound 151, 5-(2-{2-[(1,2,3,4-tetrahydro-1,8-naphthyridine-1-carbonyl)amino]phenyl}-ethynyl)pyridine-2-carboxylic acid], 100 to 1000 nM; to `COC(=O)c1cc(Cl)c(C#Cc2ccccc2NS(=O)(=O)c2c(C)ccc3cccnc23)cn1` [Compound 152, methyl 4-chloro-5-{2-[2-(7-methylquinoline-8-sulfonamido)phenyl]-ethynyl}pyridine-2-carboxylate], 10 to 100 nM.
To `O=C(O)c1ccc(C#Cc2ccccc2NS(=O)(=O)c2ccc(-c3ccccc3)cc2)cc1` [Compound 153, 4-[2-(2-{[1,1′-biphenyl]-4-sulfonamido}phenyl)ethynyl]benzoic acid] belongs 100 to 1000 nM.

The term IC50 denotes the point on the concentration scale where inhibition reaches its midpoint. A lower IC50 goes with greater potency.
